Columns and labels:
[1] = Determination of compound (III) content in prothioconazole formulations by HPLC-MS/MS, starting samples; format: physicochemical; settings: PTZ EC 250 starting sample
Method: (§1) Determination of 2-(1-chlorocyclopropyl)-1-(2-chlorophenyl)-3-(1H-1,2,4-triazol-1-yl)propan-2-ol (Compound III) in Formulations
(§2) 2-(1-Chlorocyclopropyl)-1-(2-chlorophenyl)-3-(1H-1,2,4-triazol-1-yl)propan-2-ol is separated from the formulation constituents on a reverse phase column using an isocratic eluent. After MS/MS detection, the quantitative evaluation is conducted by comparing the peak areas with those of the reference object, using an external standard.
(§3) High-pressure liquid chromatograph: HP 1090
(§4) Sample injection: HP 1090 Autoinjector
(§5) Mass spectrometer: Quattro I, Fisons
(§6) Integration and evaluation: MassLynx from Micromass

[2] = Determination of compound (III) content in prothioconazole formulations after storage at 54° C. for 2 weeks; format: physicochemical; settings: PTZ EC 250 after storage at 54° C. over 2 weeks
Method: as §1, §2, §3, §4, §5, §6
Example 9: Comparison of Compound (III) Content of the Formulations from Examples 1 to 4 after Storage at 54° C. for 2 Weeks

[3] = addition of 10% wt/wt Hallcomid vs 0%
[4] = addition of 20% wt/wt Hallcomid vs 0%

reduction of the content of compound (III) [1, 3]: 72%
reduction of the content of compound (III) [1, 4]: 76%
reduction of the content of compound (III) ([1]; addition of 54.9% wt/wt Hallcomid vs 0%): 97%
reduction in the content of compound (III) [2, 3]: 75%
reduction in the content of compound (III) [2, 4]: 82%
reduction in the content of compound (III) ([2]; addition of 56.9% wt/wt Hallcomid vs 0%): 98%
SMILES: C=CCCCCCCCC(=O)N(C)C [Hallcomid®, N,N-dimethyl 9-decenamide]

Reference: patent US20180360042A1, “Liquid fungicide-containing formulations” (BAYER CROPSCIENCE AKTIENGESELLSCHAFT, priority 2015, published 2018)
